Format in all cases: cell-based
Series [1] concerns ASK1 mRNA. Nature of the series: ASK1 mRNA knock-down by siNA in human A549 cells (RNAiMax transfection, Taqman RT-PCR). As to conditions: for % KD Human: 10 nM siNA, 24 hrs post-transfection, vs non-targeting control, GAPDH-normalized, mean ± S.D.; for % KD Human / % KD ASK-1 10 nM: two experiments; for % KD ASK-1 mRNA at 10 nM: mean ± S.D. (Table 5); for % KD ASK-1 10 nM: mean ± standard deviation (Table 6). Here is the method:
A549 (human; ATCC cat #CCL-185): Cells were cultured at 37° C. in the presence of 5% CO2 and grown in Ham's F12K medium with 2 mM L-glutamine adjusted to contain 1.5 g/L sodium bicarbonate and supplemented with fetal bovine serum at a final concentration of 10%, 100 μg/mL of streptomycin, and 100 U/mL penicillin.
(§1) Cells were plated in all wells of a tissue-culture treated, 96-well plate at a final count of 5000 cells/well (A549 cell line) and 3,500 cells/well (Hepal-6 cell line) in 100 μL of the appropriate culture media. The cells were cultured for 24 hours after plating at 37° C. in the presence of 5% CO2.
(§2) After 24 hours, complexes containing siNA and RNAiMax were created as follows: A solution of RNAiMax diluted 33-fold in OPTI-MEM was prepared. In parallel, solutions of the siNAs for testing were prepared to a final concentration of 120 nM in OPTI-MEM. After incubation of RNAiMax/OPTI-MEM solution at room temperature for 5 min, an equal volume of the siRNA solution and the RNAiMax solution were added together for each of the siNAs.
(§3) This solution was incubated at room temperature for 20 minutes. After incubation, 20 uL of the solution was added to each of the relevant wells. The final concentration of siNA in each well was 10 nM and the final volume of RNAiMax in each well was 0.3 ul.
(§4) The time of incubation with the RNAiMax-siNA complexes was 24 hours and there was no change in media between transfection and harvesting, unless otherwise indicated.
(§5) RNA was extracted from a 96-well plate using the TaqMan® Gene Expression Cells-to-CT™ Kit (Cat #4399002) with a modified protocol. Briefly, a 60 uL (1 plate) or 110 uL (2 plates) of the Lysis Solution with DNase I was dispensed into each well of the Lysis Buffer Plate (twin.tec full skirt plate). The lysis buffer and stop plates were stored at 4° C. until the cells were washed.
(§6) The plate was spun at 1100 rpm for 5 minutes. The culture medium was aspirated and discarded from the wells of the culture plate. The lysis was performed automatically using a BioMek FX instrument and method. After the Biomek method was completed, the lysis plate was incubated for 2 min. at room temperature. The lysis plate can be stored for 2 hours at 4° C., or at −20° C. or −80° C. for two months.
(§7) Each well of the reverse transcription plate required 10 uL of 2× reverse transcriptase Buffer, 1 uL of 20× reverse transcription enzyme and 2 uL of nuclease-free water. The reverse transcription master mix was prepared by mixing 2× reverse transcription buffer, 20× reverse transcription enzyme mix, and nuclease-free water. 13 uL of the reverse transcription master mix was dispensed into each well of the reverse transcription plate (semi-skirted). A separate reverse transcription plate was prepared for each cell plate. The plate was loaded onto a Biomek NX or Biomek FX Dual-96 and the Biomek method was run. The program is programmed to automatically added 7 uL of lysate from the cell lysis procedure described above into each well of the reverse transcription plate. The plate is sealed and spun on a centrifuge (1000 rpm for 30 seconds) to settle the contents to the bottom of the reverse transcription plate. The plate is placed in a thermocycler at 37° C. for 60 min, 95° C. for 5 min, and 4° C. until the plate is removed from the thermocycler. Upon removal, if not used immediately, the plate was frozen at −20° C.
(§8) A series of probes and primers were used to detect the various mRNA transcripts of the genes of ASK1, ASK2, and GAPDH in human cell lines and ASK1 and GAPDH in mouse cell lines. All Taqman probes and primers for the experiments were supplied as pre-validated sets by ABI (see Table 2).
(§9) The assays were performed on an ABI 7900 instrument, according to the manufacturer's instructions. A TaqMan Gene Expression Master Mix (provided in the Cells-to-CT™, Applied Biosystems, Cat #4399002) was used. […]
On the technique in general: Quantitative PCR measures a nucleic acid by following its amplification.

Series [2] deals with mRNA transcript of human ASK2. Nature of the series: ASK2 specificity screen: effect of ASK1 siNAs on human ASK2 mRNA in A549 cells. The note with it: 1 nM siNA, three independent experiments, mean ± standard deviation. As for the experimental part:
A549 cells were plated in all wells of a tissue-culture treated, 96-well plate at a final count of 5,000 cells/well in 100 μL of appropriate culture media. Cells were cultured for 24 hours after plating at 37° C. in the presence of 5% CO2.
as §2, with “follows.” for “follows:”, “siRNAs” for “siNAs”, “12” for “120”, “siNA” for “siRNA”, “siNAs. […] This solution was incubated at room temperature for 20 minutes. After incubation, 20 uL of the solution was added to each of the relevant wells. The final concentration of siNA in each well was 1 nM and the final volume of RNAiMax in each well was 0.3 uL. The time of incubation with the RNAiMax-siNA complexes was 24 hours.” for “siNAs.”
as §5, §6, §7, §8
The assays were performed on an ABI 7900 instrument, according to the manufacturer's instructions. A TaqMan Gene Expression Master Mix (provided in the Cells-to-CT™, Applied Biosystems, Cat #4399002) was used. The PCR reactions were carried out at 50° C. for 2 min, 95° C. for 10 min followed by 40 cycles at 95° C. for 15 secs and 60° C. for 1 min.
The expression level of the gene of interest and % knock-down was calculated using Comparative Ct method:
ΔΔCt=ΔCt(Target siRNA)−ΔCt(NTC)
Relative expression level=2^−ΔΔCt
The non-targeting control siRNA was, unless otherwise indicated, chosen as the value against which to calculate the % knock-down, because it is the most relevant control.
The specificity of these siNAs was also assessed. […]

Series [3] relates to ASK1 mRNA. Nature of the series: ASK1 mRNA knock-down by siNA in mouse Hepa1-6 cells (RNAiMax transfection, Taqman RT-PCR). The note with it: 10 nM siNA, 24 hrs post-transfection, vs non-targeting control, GAPDH-normalized, mean ± S.D., two experiments. Here is the method: Hepal-6 (murine; ATCC cat #CRL-1830): Cells were cultured at 37° C. in the presence of 5% CO2 and grown in Dulbecco's modified Eagle's medium (DMEM) with 4 mM L-glutamine adjusted to contain 1.5 g/L sodium bicarbonate and 4.5 g/L glucose and supplemented with 10% of fetal bovine serum, 100 μg/mL of streptomycin, and 100 U/mL penicillin.
as §1, §2, §3, §4, §5, §6, §7, §8, §9

For series [4], the system named is ASK1 mRNA. Nature of the series: ASK1 mRNA knock-down by siNA in human A549 cells (RNAiMax transfection, Taqman RT-PCR). As to conditions: 12 concentrations 0.083 fM to 30 nM, mean ± S.D.

[invAb] = inverted abasic unit; m = 2'-O-methyl; r = 2'-OH (RNA); f = 2'-fluoro

As a reminder, the IC50 is the concentration at which inhibition is half-maximal. Read a high IC50 as lower potency. In the case of “25376-DC: siNA duplex, sense B GcAccAGAAAuAAuAGAuA TTB, antisense UAUcuAuuAuuucuGGuGcUU (SEQ ID NO: 33/34), human ASK1 target site 2900 (sense GCACCAGAAAUAAUAGAUATT; antisense UAUCUAUUAUUUCUGGUGCUU; chemistry not fully specified)”, in the series on ASK1 mRNA [1], the “% KD Human” value is 89 ± 1%, the “% KD ASK-1 mRNA at 10 nM” value was 89 ± 1% and the “% KD ASK-1 10 nM” value came to 89 ± 1%. In series [2], the “% KD ASK-2 1 nM” value is 5 ± 12%. Also, the “% KD Mouse” value in the series with ASK1 mRNA [3] came out at 14 ± 18%. Besides, the IC50 with ASK1 mRNA [4] stood at 14 ± 4 pM.

“25379-DC: siNA duplex, sense B cGAuGGAAAuucuAAAAAu TTB, antisense AUUuuuAGAAuuuccAucGUU (SEQ ID NO: 39/40), human ASK1 target site 4507 (sense CGAUGGAAAUUCUAAAAAUTT; antisense AUUUUUAGAAUUUCCAUCGUU; chemistry not fully specified)”: in the series with ASK1 mRNA [1], the “% KD Human” value stood at 92 ± 0%, the “% KD ASK-1 mRNA at 10 nM” value was 92 ± 0% and the “% KD ASK-1 10 nM” value is reported as 92 ± 0%. Moreover, the “% KD ASK-2 1 nM” value in series [2] is −6 ± 4%. Also, the “% KD Mouse” value with ASK1 mRNA [3] amounted to 4 ± 3%. Also, 9 ± 2 pM corresponded to half-maximal inhibition with ASK1 mRNA [4] (IC50).

Turning to “25385-DC: siNA duplex, sense B GGAAGGcuAucAuuGAcuu TTB, antisense AAGucAAuGAuAGccuuccUU (SEQ ID NO: 51/52), human ASK1 target site 4449 (sense GGAAGGCUAUCAUUGACUUTT; antisense AAGUCAAUGAUAGCCUUCCUU; chemistry not fully specified)”, in the series with ASK1 mRNA [1], the “% KD Human” value is 90 ± 0%, the “% KD ASK-1 mRNA at 10 nM” value amounted to 90 ± 0% and the “% KD ASK-1 10 nM” value worked out at 90 ± 0%. Also, the “% KD ASK-2 1 nM” value in series [2] is on record as 2 ± 11%. The “% KD Mouse” value in the series on ASK1 mRNA [3] is listed as 75 ± 15%. In the series with ASK1 mRNA [4], the IC50 came to 10 ± 3 pM.

With “25387-DC: siNA duplex, sense B cAccAGAAAuAAuAGAuAA TTB, antisense UUAucuAuuAuuucuGGuGUU (SEQ ID NO: 55/56), human ASK1 target site 2901 (sense CACCAGAAAUAAUAGAUAATT; antisense UUAUCUAUUAUUUCUGGUGUU; chemistry not fully specified)”, in the series on ASK1 mRNA [1], the “% KD Human” value came out at 87 ± 2%, the “% KD ASK-1 mRNA at 10 nM” value came out at 87 ± 2% and the “% KD ASK-1 10 nM” value was found to be 87 ± 2%. The “% KD ASK-2 1 nM” value in series [2] is reported as 4 ± 11%. For the same substance, the “% KD Mouse” value in the series on ASK1 mRNA [3] is given as −17 ± 11%. Moreover, inhibition in the series on ASK1 mRNA [4] was half-maximal at 20 ± 3 pM (IC50).

On to “25389-DC: siNA duplex, sense B GAGAcAAuuuuAAuAuAuA TTB, antisense UAUAuAuuAAAAuuGucucUU (SEQ ID NO: 59/60), human ASK1 target site 1907 (sense GAGACAAUUUUAAUAUAUATT; antisense UAUAUAUUAAAAUUGUCUCUU; chemistry not fully specified)”, for which, in the series with ASK1 mRNA [1], the “% KD Human” value is given as 93 ± 4%, the “% KD ASK-1 mRNA at 10 nM” value turned out to be 93 ± 4% and the “% KD ASK-1 10 nM” value turned out to be 93 ± 4%. Further, in series [2], the “% KD ASK-2 1 nM” value is on record as 5 ± 4%. In addition, the “% KD Mouse” value with ASK1 mRNA [3] is −4 ± 4%. The substance also showed an IC50 with ASK1 mRNA [4] of 3 ± 0.5 pM.

Take “25399-DC: siNA duplex, sense B ccAAcAcuAcAGucAGGAA TTB, antisense UUCcuGAcuGuAGuGuuGGUU (SEQ ID NO: 79/80), human ASK1 target site 1640 (sense CCAACACUACAGUCAGGAATT; antisense UUCCUGACUGUAGUGUUGGUU; sense: DNA at AGT, 2'-fluoro at CU, [invAb] at 5' end, 3' end, backbone not given here; antisense: sugars from the 5' end rrrffmmffmfmmfmffmmmm, backbone not given here)”: in the series with ASK1 mRNA [1], the “% KD Human” value is given as 81 ± 2%, the “% KD ASK-1 mRNA at 10 nM” value is on record as 81 ± 2% and the “% KD ASK-1 10 nM” value is given as 81 ± 2%. For the same substance, the “% KD ASK-2 1 nM” value in series [2] amounted to 9 ± 8%. Further, the “% KD Mouse” value in the series with ASK1 mRNA [3] turned out to be 62 ± 0%. It took 150 ± 43 pM to reach half-maximal inhibition in the series with ASK1 mRNA [4] (IC50).

(Values after patent publication US20120010272A1, “RNA Interference Mediated Inhibition of Apoptosis Signal-Regulating Kinase 1 (ASK1) Gene Expression Using Short Interfering Nucleic Acid (siNA)” (Merck Sharp & Dohme Corp., priority 2009, published 2012).)
